Among the test systems are OVCAR-8 ovarian; U251 CNS; COLO 205 colon; SN12C renal; CCRF-CEM leukemia; TK-10 renal; SF-539 CNS; A549 NSCLC; SK-MEL-2 melanoma; BT-549 breast; SR leukemia; SF-295 CNS; HS 578T breast; SNB-75 CNS; LOX IMVI melanoma; HCC-2998 colon; SW-620 colon.
What all share (assay): inhibition of tumour cell growth, NCI panel, 48 h

SMILES strings stand for the structures.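 The compound was tested at five concentrations on cells cultured in 96-well plates, with a 48-hour exposure period. TGI is the concentration that stops growth completely.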

For `FC(F)(F)c1ccc2c(-c3cc[nH]c3)ccnc2c1`, the TGI was more than 100 µM in the assay with OVCAR-8 ovarian; more than 100 µM in the assay with U251 CNS; 43.8 µM in the assay on COLO 205 colon; more than 100 µM in the assay on SN12C renal; more than 100 µM with CCRF-CEM leukemia; 70.1 µM in the assay on TK-10 renal. Besides, the TGI in the assay with SF-539 CNS is more than 100 µM; with A549 NSCLC, 75 µM; in the assay with SK-MEL-2 melanoma, more than 100 µM; in the assay on BT-549 breast, 68.9 µM; in the assay on SR leukemia it was 84.9 µM; in the assay on SF-295 CNS, 84.1 µM. Besides, the TGI is 56.4 µM in the assay on HS 578T breast; 33.8 µM in the assay with SNB-75 CNS; 48.9 µM in the assay with LOX IMVI melanoma; more than 100 µM in the assay with HCC-2998 colon; more than 100 µM in the assay on SW-620 colon.
With `Cc1ccc(S(=O)(=O)N(CCN)c2cc3c4c(c2)Oc2cccc5c2C4c2c(cccc2O3)O5)cc1`, the TGI is 23.2 µM with OVCAR-8 ovarian; more than 100 µM in the assay with U251 CNS; 57.9 µM with COLO 205 colon; more than 100 µM with SN12C renal; 57.9 µM in the assay with CCRF-CEM leukemia; more than 100 µM with TK-10 renal. The TGI with SF-539 CNS was 50 µM; with A549 NSCLC it was more than 100 µM; in the assay with SK-MEL-2 melanoma it was 47.7 µM; with BT-549 breast, more than 100 µM; in the assay on SR leukemia, more than 100 µM; in the assay with SF-295 CNS it was 54.5 µM. The TGI in the assay with HS 578T breast was 38.2 µM; with SNB-75 CNS, 25.1 µM; with LOX IMVI melanoma it was 73.4 µM; in the assay on HCC-2998 colon it was more than 100 µM; with SW-620 colon it was more than 100 µM.
In the case of `COc1ccc(C2(CC(C)C)CCNC2)cc1OC` (configuration not stated), the TGI in the assay with OVCAR-8 ovarian, in the assay with U251 CNS, with COLO 205 colon, in the assay on SN12C renal, with CCRF-CEM leukemia and with TK-10 renal was more than 100 µM each time. The TGI with A549 NSCLC, with SK-MEL-2 melanoma, with BT-549 breast, in the assay with SR leukemia, in the assay on SF-295 CNS and in the assay on HS 578T breast was more than 100 µM throughout. Also, the TGI was 86.3 µM with SNB-75 CNS, more than 100 µM with LOX IMVI melanoma, 38.5 µM with HCC-2998 colon and more than 100 µM with SW-620 colon.
In the case of `O=S(=O)(CC(Cl)c1ccccc1)c1nc2ccccc2s1` (configuration not stated), the TGI worked out at 23.8 µM in the assay on OVCAR-8 ovarian; 25.9 µM in the assay on U251 CNS; 22.2 µM in the assay with COLO 205 colon; 30.3 µM in the assay on SN12C renal; 4.28 µM with CCRF-CEM leukemia; 34.2 µM with TK-10 renal. Further, the TGI with SF-539 CNS amounted to 23.9 µM; with A549 NSCLC, 43.1 µM; with SK-MEL-2 melanoma, 37.4 µM; in the assay on BT-549 breast, 8.72 µM; in the assay on SR leukemia, 4.55 µM; in the assay on SF-295 CNS it was 32.6 µM. Moreover, the TGI with HS 578T breast was more than 69 µM; with SNB-75 CNS, 27.8 µM; in the assay on LOX IMVI melanoma, 4.04 µM; in the assay with HCC-2998 colon it was 31.8 µM; in the assay with SW-620 colon it was 20.7 µM.
As for `O=S(Cc1ccccc1)c1ccccc1Cn1cccc1` (configuration not stated), the TGI with U251 CNS, in the assay with COLO 205 colon, with SN12C renal, in the assay on CCRF-CEM leukemia, in the assay on TK-10 renal and with SF-539 CNS was more than 100 µM throughout. The TGI is more than 100 µM in the assay on A549 NSCLC; more than 100 µM in the assay on SK-MEL-2 melanoma; more than 100 µM in the assay on BT-549 breast; 83.4 µM in the assay with SR leukemia; more than 100 µM in the assay on SF-295 CNS; more than 100 µM with HS 578T breast. Also, the TGI with SNB-75 CNS, in the assay with LOX IMVI melanoma, in the assay on HCC-2998 colon and in the assay on SW-620 colon was more than 100 µM each time.
Take `CCCC(=O)OCC1OC(n2cc(F)c(=O)[nH]c2=O)C(F)C1O` (configuration not stated): the TGI in the assay with OVCAR-8 ovarian, with U251 CNS, with COLO 205 colon, with SN12C renal, in the assay with CCRF-CEM leukemia and with TK-10 renal was more than 100 µM each time. In addition, the TGI in the assay on SF-539 CNS was more than 31.6 µM; with A549 NSCLC, more than 100 µM; in the assay with SK-MEL-2 melanoma, more than 100 µM; in the assay on BT-549 breast, more than 100 µM; with SR leukemia it was more than 100 µM; with SF-295 CNS it was more than 100 µM. In addition, the TGI with HS 578T breast, in the assay on SNB-75 CNS, in the assay on LOX IMVI melanoma, in the assay on HCC-2998 colon and with SW-620 colon was more than 100 µM in each case.
Regarding `Cc1cc(C)n(-c2nc(-n3nc(C)cc3C)nc(-n3nc(C)cc3C)n2)n1`, the TGI in the assay on OVCAR-8 ovarian is more than 100 µM; in the assay on COLO 205 colon, more than 100 µM; in the assay with SN12C renal, more than 100 µM; in the assay on CCRF-CEM leukemia, more than 100 µM; with TK-10 renal, 86.5 µM; with SF-539 CNS, more than 100 µM. Also, the TGI in the assay on A549 NSCLC, in the assay on SK-MEL-2 melanoma, with BT-549 breast, in the assay with SR leukemia, with SF-295 CNS and with HS 578T breast was more than 100 µM each time. Moreover, the TGI with LOX IMVI melanoma, with HCC-2998 colon and in the assay with SW-620 colon was more than 100 µM throughout.
As for `O=C(/C=C/c1ccc([N+](=O)[O-])cc1)N1CCN(CCOC(c2ccc(F)cc2)c2ccc(F)cc2)CC1`, the TGI in the assay with OVCAR-8 ovarian is more than 100 µM; in the assay on U251 CNS, more than 100 µM; with COLO 205 colon, 27.3 µM; in the assay with SN12C renal, more than 100 µM; in the assay on CCRF-CEM leukemia, more than 100 µM; in the assay with TK-10 renal it was more than 100 µM. Besides, the TGI in the assay on SF-539 CNS was more than 100 µM; in the assay with A549 NSCLC, more than 100 µM; in the assay with SK-MEL-2 melanoma, more than 100 µM; with BT-549 breast, more than 100 µM; in the assay with SR leukemia, 40.5 µM; in the assay with SF-295 CNS, more than 100 µM. In addition, the TGI in the assay on HS 578T breast, with SNB-75 CNS, in the assay with LOX IMVI melanoma, in the assay with HCC-2998 colon and with SW-620 colon was more than 100 µM each time.
